Tests used:
[1] = biological target: human CYP4F2 (Homo sapiens (Human), UniProt P78329); assay: Inhibition test against 20-HETE producing enzyme CYP4F2 (luciferine derivative, luminescence); assay type: biochemical
In short: (§1)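 E. coli membranes (100 μg/mL protein) expressing human enzyme, room temperature 60 min, luciferin-derivative luminescence; IC50 from % inhibition. CYP4F2: 50 mM KPO4 pH 7.4, 2.5 μM substrate, 1 mM NADPH. CYP4A11: 100 mM Tris-HCl pH 7.5, 60 μM substrate, NADP+/glucose 6-phosphate/G6PDH regenerating system, 3.3 mM MgCl2.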

[2] = biological target: human CYP4A11 (Homo sapiens (Human), UniProt Q02928); assay: Inhibition test against 20-HETE producing enzyme CYP4A11 (luciferine derivative, luminescence); assay type: biochemical
In short: as §1

[3] = E. coli membrane fraction expressing human CYP4F2, 2.5 μM luciferine derivative, room temperature 60 minutes
[4] = E. coli membrane fraction expressing human CYP4A11, 60 μM luciferine derivative, room temperature 60 minutes
[5] = human CYP4F2, luciferine derivative, luminescence
[6] = human CYP4A11, luciferine derivative, luminescence

Chain of human CYP4F2 (P78329 5-520): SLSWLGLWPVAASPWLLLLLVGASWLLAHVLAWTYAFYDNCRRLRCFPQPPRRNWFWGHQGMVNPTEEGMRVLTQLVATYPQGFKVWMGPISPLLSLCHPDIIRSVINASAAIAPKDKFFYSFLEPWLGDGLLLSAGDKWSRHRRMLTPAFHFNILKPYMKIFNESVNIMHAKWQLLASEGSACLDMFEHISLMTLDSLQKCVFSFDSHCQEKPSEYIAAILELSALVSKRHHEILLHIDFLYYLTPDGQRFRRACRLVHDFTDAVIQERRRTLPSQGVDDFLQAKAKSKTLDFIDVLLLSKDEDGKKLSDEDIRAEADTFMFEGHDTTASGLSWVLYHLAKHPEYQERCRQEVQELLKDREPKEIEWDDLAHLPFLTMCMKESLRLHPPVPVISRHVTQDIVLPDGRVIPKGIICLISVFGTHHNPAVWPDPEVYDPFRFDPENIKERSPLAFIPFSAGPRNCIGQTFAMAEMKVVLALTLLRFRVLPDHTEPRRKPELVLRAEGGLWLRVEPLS
Chain of human CYP4A11 (Q02928 5-519): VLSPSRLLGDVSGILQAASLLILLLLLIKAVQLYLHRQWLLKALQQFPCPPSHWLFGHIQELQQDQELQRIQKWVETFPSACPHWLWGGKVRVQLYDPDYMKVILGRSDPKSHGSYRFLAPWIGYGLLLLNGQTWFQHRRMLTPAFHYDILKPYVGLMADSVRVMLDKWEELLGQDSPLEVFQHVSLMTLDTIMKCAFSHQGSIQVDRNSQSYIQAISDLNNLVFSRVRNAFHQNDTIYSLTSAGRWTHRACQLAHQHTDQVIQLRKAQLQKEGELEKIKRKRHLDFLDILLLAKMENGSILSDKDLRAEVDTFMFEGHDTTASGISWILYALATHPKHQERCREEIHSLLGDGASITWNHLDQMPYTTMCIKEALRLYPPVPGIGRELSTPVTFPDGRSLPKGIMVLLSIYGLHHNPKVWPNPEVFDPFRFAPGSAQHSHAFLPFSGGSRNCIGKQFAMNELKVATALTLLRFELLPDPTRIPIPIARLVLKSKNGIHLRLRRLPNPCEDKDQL

Structure (SMILES)	IC50 [1, 3] [nM]	IC50 [2, 4] [nM]	IC50 [1, 5] [nM]	IC50 [2, 6] [nM]
O=C(CCc1cccc(COc2ccc(-c3ccn[nH]3)nc2)c1)NCCO [Example 42-11]	95	100	–	–
O=C(CCc1cccc(COc2ccc(-c3ccn[nH]3)nc2)c1)N1CCC1 [Example 42-12]	42	44	–	–
O=C(CCc1cccc(COc2ccc(-c3ccn[nH]3)nc2)c1)N1CCCC1 [Example 42-13]	15	150	–	–
O=C(CCc1cccc(COc2ccc(-c3ccn[nH]3)nc2)c1)N1CCCCC1 [Example 42-14]	–	–	30	240
O=C(CCc1cccc(COc2ccc(-c3ccn[nH]3)nc2)c1)N1CCOCC1 [Example 42-15]	–	–	140	400
CN(C)C(=O)/C=C/c1cccc(COc2ccc(-c3ccn[nH]3)nc2)c1 [Example 42-16]	–	–	5.7	210
O=C(CCc1cccc(COc2cnc(-c3ccn[nH]3)c(F)c2)c1)N1CCC1 [Example 42-17]	–	–	12	35
O=C(CCc1cccc(COc2cnc(-c3ccn[nH]3)c(F)c2)c1)NCCO [Example 42-18]	–	–	21	58
O=C(CCc1cccc(COc2cnc(-c3ccn[nH]3)c(F)c2)c1)N1CC(O)C1 [Example 42-19]	–	–	47	110
O=C(CCc1cccc(COc2cnc(-c3ccn[nH]3)c(F)c2)c1)NC1COC1 [Example 42-20]	–	–	11	76
CN(C)C(=O)[C@H]1C[C@](O)(c2cccc(COc3ccc(-c4ccn[nH]4)nc3)c2)C1 [Example 42-21]	–	–	28	430
CN(C)C(=O)[C@H]1C[C@](O)(c2cc(COc3ccc(-c4ccn[nH]4)nc3)ccc2F)C1 [Example 42-22]	–	–	99	270
CNC(=O)C(C)c1cccc(COc2ccc(-c3ccn[nH]3)nc2)c1 (stereo not drawn) [Example 42-23]	–	–	55	160
CNC(=O)C(C)(C)c1cccc(COc2ccc(-c3ccn[nH]3)nc2)c1 [Example 42-24]	–	–	150	39
O=C(CCc1cccc(COc2ccc(-c3ccn[nH]3)nc2)c1)N1CC(F)C1 [Example 43-1, 1-(3-Fluoro-1-azetidinyl)-3-[3-[[6-(1H-pyrazol-5-yl)-3-pyridinyl]oxymethyl]phenyl]-1-propanone]	–	–	52	58
O=C(CCc1cccc(COc2ccc(-c3ccn[nH]3)nc2)c1)N1CC(F)(F)C1 [Example 43-2]	–	–	48	59
CN(CCO)C(=O)CCc1cccc(COc2ccc(-c3ccn[nH]3)nc2)c1 [Example 43-3]	–	–	170	310
O=C(CCc1cccc(COc2ccc(-c3ccn[nH]3)nc2)c1)NC1COC1 [Example 43-4]	–	–	45	150
COCCNC(=O)CCc1cccc(COc2ccc(-c3ccn[nH]3)nc2)c1 [Example 43-5]	–	–	40	82
C[C@@H](O)CNC(=O)CCc1cccc(COc2ccc(-c3ccn[nH]3)nc2)c1 [Example 43-6]	–	–	92	56
C[C@@H](CO)NC(=O)CCc1cccc(COc2ccc(-c3ccn[nH]3)nc2)c1 [Example 43-7]	–	–	63	320
C[C@H](CO)NC(=O)CCc1cccc(COc2ccc(-c3ccn[nH]3)nc2)c1 [Example 43-8]	–	–	120	120
C[C@H](O)CNC(=O)CCc1cccc(COc2ccc(-c3ccn[nH]3)nc2)c1 [Example 43-9]	–	–	73	130
O=C(CCc1cccc(COc2ccc(-c3ccn[nH]3)nc2)c1)N1CC(O)C1 [Example 43-10]	–	–	190	140
O=C(CCc1cccc(COc2ccc(-c3ccn[nH]3)nc2)c1)NCC(=O)N1CCCC1 [Example 43-11]	–	–	32	280
CO[C@H](C)CNC(=O)CCc1cccc(COc2ccc(-c3ccn[nH]3)nc2)c1 [Example 43-12]	–	–	40	76
O=C(CCc1cccc(COc2ccc(-c3ccn[nH]3)nc2)c1)NC[C@H]1CCCO1 [Example 43-13]	–	–	21	48
O=C(CCc1cccc(COc2ccc(-c3ccn[nH]3)nc2)c1)NC[C@@H]1CCCO1 [Example 43-14]	–	–	18	52
CN(C)CCNC(=O)CCc1cccc(COc2ccc(-c3ccn[nH]3)nc2)c1 [Example 43-15]	–	–	280	910
CN(C)C(=O)C1CC1c1cccc(COc2ccc(-c3ccn[nH]3)nc2)c1 (stereo not drawn) [Example 43-16]	–	–	22	190

Reference: US11365192B2, “Pyridine compound substituted with azole” (TAISHO PHARMACEUTICAL CO., LTD., priority 2017, dated 2022)
